The subject of this experiment is QGY-7701 cell line. The experiment is described as follows: CCK-8 cell proliferation assay, QGY-7701. Type of experiment: cell-based, human. The note with it: read-out: IC50 QGY-7701; CCK8, 72 h of treatment.

For orientation: IC50 means the concentration needed to halve the response being measured.

Take `N.N.[Cl][Pt][Cl]` [Cisplatin]: the IC50 was 8.75 ± 0.26 µM.

The values above are taken from article PMC9083030 (RSC Advances, 2018).
